Legend:
Assay type in all cases: cell-based
[1] = test system: adult human articular cartilage; assay: RT-PCR of hypertrophy and degradation genes in human articular cartilage explant culture
Procedure: Total RNA was isolated from chondrocytes or cartilage explants by the guanidine isothiocyanate procedure according to Chomczynski and Sacchi (Chomczynski, P. et al., Anal. Biochem. 162:156-9 (1987)) with some modifications. Briefly, chondrocytes (1-2×10^6 cells) or cartilage tissue (200-300 mg) were solubilized in solution D (4 M guanidine isothiocyanate, 20 mM sodium acetate/pH 5.2, 0.1 M 2-mercaptoethanol and 0.5% N-lauroylsarcosine). One volume of isopropanol was added to the mixture and all proteins and nucleic acids were precipitated at −20° C. overnight. […] The total RNA pellet was resuspended in diethyl pyrocarbonate-treated (DEPC) water and the amount of total RNA was measured by reading optical density at 260 nm. […]
One microliter of reverse transcribed total RNA was incubated with 2.5 U of AmpliTaq™ DNA polymerase (Perkin Elmer, Branchburg, N.J.) in 50 mM KCl, 1.5 mM MgCl2, 10 mM Tris-HCl, pH 8.3, 200 μM dNTP mix and 0.5 μmol each of oligonucleotide primers in 50 μl reaction mixture. […] The digital images of the gel were analyzed using NIH 1.60 imaging software to evaluate the pixel intensity of the band of the PCR products. […] The band intensities were determined to be below saturation. […]
MMP-13 expression was maximal by 12 days. Gene expression was determined by RT-PCR analyses of mRNA in the manner used to detect expression of MMPs and cytokines described elsewhere. […]

MMP-1 [2] = assay: RT-PCR of MMP-1 mRNA in human chondrocyte culture; conditions: 24 hours incubation; data not shown
From the text: Isolated normal human chondrocytes were used for chondrocyte cultures, detection of integrin expression by FACScan, and cell attachment assays. The dissected normal human cartilage obtained at autopsy was cut into small cubes 2-4 mm in size. Chondrocytes were isolated as previously described (34), with some modifications. Briefly, the cubes were washed three times with medium (A). Thereafter, the diced cartilage was digested with 0.1% (wt/vol) trypsin (Sigma) and 0.02% (wt/vol) EDTA (Sigma) for 60 minutes (25 ml/10 g wet weight tissue) at 37° C. After washing the cartilage with Medium A containing 10% heat-inactivated fetal calf serum (FCS) to inhibit the trypsin, the digestion was continued in the same medium with serum (50 ml/10 g wet weight tissue) containing 0.2% (wt/vol) collagenase (type IA; Sigma) for 16 h at 37° C. with gentle agitation on a gyrotary shaker. Undigested cartilage was removed by filtration through a layer of nylon mesh (Cell Strainer; Becton Dickinson Labware, NJ). […]
Total RNA was isolated from chondrocytes or cartilage explants by the guanidine isothiocyanate procedure according to Chomczynski and Sacchi (Chomczynski, P. et al., Anal. Biochem. 162:156-9 (1987)) with some modifications. […] The total RNA pellet was resuspended in diethyl pyrocarbonate-treated (DEPC) water and the amount of total RNA was measured by reading optical density at 260 nm. […]

MMP-1 [3] = assay: ELISA for MMP-1 in conditioned medium of human chondrocytes; conditions: 48 hours; CB12-II 50 μM, TNF-α 50 ng/ml
Procedure: First-passaged normal human chondrocytes isolated by the method described above and cultured at high density (2×10^5 cells/cm^2) were trypsinized and resuspended in Medium A containing 1% FCS at a density of 10^6 cells/ml. Then, 200 μl of the cell suspension was each plated onto round-bottomed 96-well culture plate. On the next day after plating, CB12-II at 50 μM, USP at 50 μM, and TNF-α at 50 ng/ml were added to the culture media, and the culture was maintained for 24-48 hours. Conditioned media were collected and subjected to ELISA assay. The ELISA kits (BIOTRAK) for MMP-1 and MMP-13 were purchased from Amersham Pharmacia Biotech (Piscataway, N.J.). Measurement range was 6.25-100 ng/ml for MMP-1 and 0.094-3 ng/ml for MMP-13. Sensitivity for the assay was 1.7 ng/ml for MMP-1 and 0.7 ng/ml for MMP-13.
Protein levels of MMP-1 and MMP-13 were also tested by incubating isolated human chondrocytes for 48 hours in high density culture (10^6 cells/ml) with CB12-II, negative control peptide USP, or cytokine TNF-α, as discussed above. MMP-1 and MMP-13 secretion into medium from the cells was measured using ELISA (see FIGS. 9A and 9B).

Sequence: ERGPPGPQGARGFPGTPGLPGVK [CB12-II]
- time at which MMP-13 expression was maximal [1]: ≤ 12 days
- expression of genes characteristic of chondrocyte hypertrophy (COLX, MMP-9, TGF-B1, IHH, MMP-13, CBFA1, SOX 9, bFGF, pTHrP, caspase-3, MT1-MMP, IL-1B, MMP-1) ([1]; induction within a 24-48 hr period): rapid induction
- MMP-1 gene expression (mRNA by RT-PCR) (MMP-1 [2]): clearly induced
- MMP-1 secretion into medium versus no peptide and negative control peptide (USP) (MMP-1 [3]): significantly higher

— patent US20040122209A1, “Products for regulating the degradation of collagen and methods for identifying same” (Shriners Hospital For Children, priority 2002, published 2004)
